Literature values in patent US20240293600A1, “COMPOSITIONS, METHODS, AND DEVICES FOR SUSTAINED RELEASE OF AN AGENT” (Board of Supervisors of Louisiana State University and …, priority 2021, published 2024).

solubility in water: practically insoluble in water
Compound: O=c1c(O)c(-c2ccc(O)c(O)c2)oc2cc(O)cc(O)c12 [Quercetin, 2-(3,4-dihydroxyphenyl)-3,5,7-trihydroxy-4H-1-benzopyran-4-one]
